Laboratory results from ChEMBL document CHEMBL3763125, “Discovery of novel phenoxazinone derivatives as DKK1/LRP6 interaction inhibitors: Synthesis, biological evaluation and structure-activity relationships” (Bioorg Med Chem, 2016).
Activity calls are given as the source filed them. No cut-off for these calls is given here.

Experiments:
Type in all cases: cell-based
[1] = target: T1, Low-density lipoprotein receptor-related protein 6 (Homo sapiens, UniProt O75581); assay: Binding affinity to LRP6 in human SH-SY5Y cells assessed as DKK1/LRP6 interaction-mediated increase in beta-catenin level at 10 uM incubated for 1 hr using compound pre-treated DKK1 conditioned media by Western blot analysis
T1 sequence (O75581 whole entry): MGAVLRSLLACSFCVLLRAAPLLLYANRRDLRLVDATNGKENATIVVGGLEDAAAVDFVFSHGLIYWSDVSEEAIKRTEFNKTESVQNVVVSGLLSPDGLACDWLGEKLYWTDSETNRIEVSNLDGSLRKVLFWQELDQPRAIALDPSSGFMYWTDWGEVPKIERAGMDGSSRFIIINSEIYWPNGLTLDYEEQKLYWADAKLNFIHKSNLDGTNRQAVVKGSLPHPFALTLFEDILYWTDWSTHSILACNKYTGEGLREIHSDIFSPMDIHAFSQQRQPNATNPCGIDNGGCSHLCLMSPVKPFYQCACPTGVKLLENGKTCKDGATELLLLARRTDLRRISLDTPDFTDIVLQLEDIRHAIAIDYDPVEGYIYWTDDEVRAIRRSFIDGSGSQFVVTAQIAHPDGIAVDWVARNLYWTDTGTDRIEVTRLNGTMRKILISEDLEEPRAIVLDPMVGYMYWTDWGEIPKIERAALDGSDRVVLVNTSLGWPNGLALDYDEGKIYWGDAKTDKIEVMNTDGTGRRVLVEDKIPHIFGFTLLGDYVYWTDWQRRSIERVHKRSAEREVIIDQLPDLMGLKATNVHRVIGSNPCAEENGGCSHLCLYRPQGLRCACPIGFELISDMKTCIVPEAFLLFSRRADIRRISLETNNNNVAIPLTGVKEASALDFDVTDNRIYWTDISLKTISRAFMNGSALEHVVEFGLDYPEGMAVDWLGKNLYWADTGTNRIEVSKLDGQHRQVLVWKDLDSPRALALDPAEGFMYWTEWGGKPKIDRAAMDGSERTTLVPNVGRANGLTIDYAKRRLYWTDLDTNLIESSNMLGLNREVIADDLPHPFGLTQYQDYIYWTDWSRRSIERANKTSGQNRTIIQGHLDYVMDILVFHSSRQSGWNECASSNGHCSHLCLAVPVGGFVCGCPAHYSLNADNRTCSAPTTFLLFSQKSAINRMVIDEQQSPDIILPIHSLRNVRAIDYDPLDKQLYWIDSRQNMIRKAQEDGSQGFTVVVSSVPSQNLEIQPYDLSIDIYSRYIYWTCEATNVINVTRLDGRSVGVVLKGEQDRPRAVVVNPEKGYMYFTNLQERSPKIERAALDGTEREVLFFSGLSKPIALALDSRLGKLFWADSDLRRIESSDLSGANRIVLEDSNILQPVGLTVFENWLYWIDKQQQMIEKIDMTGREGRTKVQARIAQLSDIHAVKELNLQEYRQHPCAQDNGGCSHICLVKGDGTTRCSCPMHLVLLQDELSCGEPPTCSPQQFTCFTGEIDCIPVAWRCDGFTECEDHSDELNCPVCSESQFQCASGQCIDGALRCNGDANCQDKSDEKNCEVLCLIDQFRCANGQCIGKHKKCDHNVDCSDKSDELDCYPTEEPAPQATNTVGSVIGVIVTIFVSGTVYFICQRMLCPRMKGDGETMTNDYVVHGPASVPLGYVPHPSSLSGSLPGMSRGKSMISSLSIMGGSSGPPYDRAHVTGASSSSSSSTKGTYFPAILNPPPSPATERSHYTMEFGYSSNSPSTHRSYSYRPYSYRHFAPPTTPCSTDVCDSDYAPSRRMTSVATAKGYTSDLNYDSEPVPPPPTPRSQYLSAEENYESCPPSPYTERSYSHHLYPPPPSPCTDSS

[2] = tested on: SH-SY5Y; assay: Cytotoxicity against human SH-SY5Y cells at 10 to 100 uM after 24 hrs by MTT assay
[3] = target: T1, Low-density lipoprotein receptor-related protein 6; assay: Binding affinity to human LRP6 expressed in HEK293 cells assessed as inhibition of DKK1/LRP6 interaction using compound pre-treated DKK1 conditioned media after 2 hrs by fluorescence microscopic analysis
[4] = target: T1, Low-density lipoprotein receptor-related protein 6; assay: Binding affinity to LRP6 in human SH-SY5Y cells assessed as inhibition of DKK1/LRP6 interaction-mediated tau phosphorylation at serine 396 at 10 uM incubated for 1 hr using compound pre-treated DKK1 conditioned media by Western blot analysis

inhibition [1] | IC50 [3] [µM] | inhibition [4] | Compound | Activity [2]
Active | 6.16 | – | COC(=O)c1c2nc3ccc(N(C)C)cc3oc-2c(O)c(=O)c1Nc1ccccc1 | Non-toxic
Active | 4.33 | – | COC(=O)c1c2nc3ccc(N(C)C)cc3oc-2c(O)c(=O)c1NCc1ccc(OC)cc1 | Non-toxic
Active | 3.77 | – | COC(=O)c1c2nc3ccc(N(C)C)cc3oc-2c(O)c(=O)c1Nc1ccc(C)cc1 | Non-toxic
Active | 4.06 | – | COC(=O)c1c2nc3ccc(N(C)C)cc3oc-2c(O)c(=O)c1NC1CCCCC1 | Non-toxic
Active | 4.71 | – | COC(=O)c1c2nc3ccc(N(C)C)cc3oc-2c(O)c(=O)c1Nc1ccc(OC)cc1 | Non-toxic
Active | 4.61 | – | COC(=O)c1c2nc3ccc(N(C)C)cc3oc-2c(O)c(=O)c1NC1CCCC1 | Non-toxic
Active | 5.23 | Active | COC(=O)c1c2nc3ccc(N(C)C)cc3oc-2c(O)c(=O)c1N | Non-toxic
Active | 3.74 | – | COC(=O)c1c2nc3ccc(N(C)C)cc3oc-2c(O)c(=O)c1N1CCOCC1 | Non-toxic
Active | 3.38 | – | CCCCOC(=O)c1c2nc3ccc(N(C)C)cc3oc-2c(O)c(=O)c1NCc1ccc(OC)cc1 | Non-toxic
Active | 4.87 | Active | COC(=O)c1c2nc3ccc(N(C)C)cc3oc-2c(O)c(=O)c1Nc1ccc(Cl)c(Cl)c1 | Non-toxic
Active | 5.5 | Active | COC(=O)c1c2nc3ccc(N(C)C)cc3oc-2c(O)c(=O)c1N1CCCCC1 | Non-toxic
